In ChEMBL document CHEMBL4406911, “Discovery of Amino-cyclobutarene-derived Indoleamine-2,3-dioxygenase 1 (IDO1) Inhibitors for Cancer Immunotherapy” (ACS Med Chem Lett, 2019):

What was measured:
[1] = target: T1, Indoleamine 2,3-dioxygenase 1 (Homo sapiens, UniProt P14902); test: Inhibition of IDO1 in human HeLa cells stimulated with IFNgamma using L-tryptophan as substrate incubated for 48 hrs by fluorescence based assay; type: cell-based
[2] = target: T1, Indoleamine 2,3-dioxygenase 1; test: Inhibition of recombinant His-tagged IDO1 (unknown origin) expressed in Escherichia coli preincubated for 30 mins followed by substrate tryptophan addition and measured after 60 mins by fluorescence based assay
[3] = Intrinsic clearance in rat; type: ADME
[4] = MRT in rat; type: ADME; settings: in vivo
[5] = Total clearance in rat; type: ADME; settings: in vivo
[6] = Clearance in human Hepatocyte; type: ADME, cell-based; settings: hepatocytes, read-out: CLH
[7] = Lipophilicity, log D of compound at pH 7 by HPLC analysis; type: physicochemical; settings: buffer
CYP450 = CYP450 (Homo sapiens, UniProt P04798+P05177+P05181+P08684+P10632+P10635+P11509+P11712+P13584+P20813+P20815+P20853+P24462+P24903+P33260+P33261+P51589+P78329+P98187+Q02928+Q08477+Q16678+Q16696+Q5TCH4+Q6VVX0+Q7Z449+Q8TAV3+Q96SQ9+Q9HB55); test: Inhibition of CYP450 (unknown origin); type: ADME, protein assay
[8] = Chemical stability of compound in 0.1 N NaOH assessed as parent compound remaining measured after 24 hrs; type: physicochemical; settings: read-out: Stability
[9] = Oral bioavailability in dog; type: ADME, organism-based, Canis lupus familiaris; settings: in vivo
[10] = target: Indoleamine 2,3-dioxygenase 1 (Mus musculus, UniProt P28776); test: Inhibition of mouse IDO1 preincubated for 30 mins followed by substrate tryptophan addition and measured after 60 mins by fluorescence based assay
EMT6 [11] = test: Antitumor activity against mouse EMT6 cells xenografted in BALB/c mouse assessed as reduction in tumor volume at 100 mg/kg, po bid and measured for weekly twice relative to control; type: functional; set-up: scale not given: the % may be the effect or the level left
[12] = Apparent permeability of compound; type: ADME; settings: not told
EMT6 [13] = test: Antitumor activity against mouse EMT6 cells xenografted in BALB/c mouse assessed as reduction in tumor volume at 100 mg/kg, po bid in presence of anti-PD1 at 5 mg/kg, […] and measured for weekly twice relative to control; type: functional; set-up: scale not given: the % may be the effect or the level left
[14] = target: T2, Nuclear receptor subfamily 1 group I member 2 (Homo sapiens, UniProt O75469); test: Activation of PXR (unknown origin)
T2 sequence (O75469 whole entry): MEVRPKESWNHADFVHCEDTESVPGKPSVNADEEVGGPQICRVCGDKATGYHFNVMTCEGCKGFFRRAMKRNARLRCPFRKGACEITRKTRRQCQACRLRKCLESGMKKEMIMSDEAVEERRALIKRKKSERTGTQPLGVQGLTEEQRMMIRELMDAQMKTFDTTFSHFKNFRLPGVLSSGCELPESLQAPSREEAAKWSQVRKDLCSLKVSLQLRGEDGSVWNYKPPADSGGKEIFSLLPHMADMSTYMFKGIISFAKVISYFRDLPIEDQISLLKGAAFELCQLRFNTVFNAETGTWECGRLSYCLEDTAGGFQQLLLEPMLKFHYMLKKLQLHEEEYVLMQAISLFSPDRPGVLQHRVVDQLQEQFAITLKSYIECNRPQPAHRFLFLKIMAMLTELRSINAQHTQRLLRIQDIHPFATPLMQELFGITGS

[15] = Half life in dog; type: ADME, Canis lupus familiaris; settings: in vivo
[16] = Chemical stability of compound in AIBN assessed as parent compound remaining measured after 24 hrs; type: physicochemical; settings: read-out: Stability
[17] = Toxicity in rat assessed as adverse event; settings: in vivo
[18] = Clearance in dog; type: ADME, Canis lupus familiaris; settings: in vivo
[19] = Chemical stability of compound in H2O2 assessed as parent compound remaining measured after 24 hrs; type: physicochemical; settings: read-out: Stability
[20] = Unbound clearance in dog; type: ADME, Canis lupus familiaris; settings: in vivo
[21] = Chemical stability of compound in 0.1 N HCl assessed as parent compound remaining measured after 24 hrs; type: physicochemical; settings: read-out: Stability
[22] = Chemical stability of compound in 0.01 N HCl assessed as parent compound remaining measured after 3 hrs; type: physicochemical; settings: read-out: Stability
[23] = Thermal stability of compound assessed as parent compound remaining measured after 3 hrs; type: physicochemical; settings: read-out: Stability
[24] = Oral bioavailability in rat; type: ADME, organism-based; settings: in vivo
[25] = Unbound clearance in rat; type: ADME; settings: in vivo
[26] = Chemical stability of compound in 0.01 N NaOH assessed as parent compound remaining measured after 3 hrs; type: physicochemical; settings: read-out: Stability
[27] = target: Indoleamine 2,3-dioxygenase 1 (Rattus norvegicus, UniProt Q9ERD9); test: Inhibition of rat IDO1 preincubated for 30 mins followed by substrate tryptophan addition and measured after 60 mins by fluorescence based assay
[28] = target: Tryptophan 2,3-dioxygenase (Homo sapiens, UniProt P48775); test: Inhibition of TDO in human SW480 cells incubated for 48 hrs using L-tryptophan as substrate by fluorescence based assay; type: cell-based
Tryptophan 2,3-dioxygenase, sequence (P48775 whole entry): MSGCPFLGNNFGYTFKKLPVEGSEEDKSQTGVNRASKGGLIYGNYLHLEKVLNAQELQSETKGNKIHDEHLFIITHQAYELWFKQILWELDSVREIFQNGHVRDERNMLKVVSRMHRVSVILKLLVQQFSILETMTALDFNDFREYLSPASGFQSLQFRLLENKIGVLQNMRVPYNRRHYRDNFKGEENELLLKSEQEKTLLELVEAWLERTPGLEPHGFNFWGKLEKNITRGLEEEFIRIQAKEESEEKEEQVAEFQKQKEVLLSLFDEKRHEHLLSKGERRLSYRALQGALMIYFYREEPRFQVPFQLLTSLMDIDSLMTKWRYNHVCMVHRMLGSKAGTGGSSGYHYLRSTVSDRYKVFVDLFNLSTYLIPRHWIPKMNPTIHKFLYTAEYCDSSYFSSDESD

T1 sequence (P14902 whole entry): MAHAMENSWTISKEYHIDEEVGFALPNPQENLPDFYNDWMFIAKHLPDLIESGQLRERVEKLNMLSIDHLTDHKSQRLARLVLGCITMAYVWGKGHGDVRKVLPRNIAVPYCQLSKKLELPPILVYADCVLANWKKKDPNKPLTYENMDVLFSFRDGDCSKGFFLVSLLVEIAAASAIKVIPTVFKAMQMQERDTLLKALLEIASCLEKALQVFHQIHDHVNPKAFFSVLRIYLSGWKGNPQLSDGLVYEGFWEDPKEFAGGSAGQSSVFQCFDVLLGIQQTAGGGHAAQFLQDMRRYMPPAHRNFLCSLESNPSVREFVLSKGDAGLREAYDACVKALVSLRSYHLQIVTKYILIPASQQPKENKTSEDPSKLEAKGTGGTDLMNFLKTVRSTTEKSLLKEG
Indoleamine 2,3-dioxygenase 1 (Mus musculus, UniProt P28776), sequence (P28776 whole entry): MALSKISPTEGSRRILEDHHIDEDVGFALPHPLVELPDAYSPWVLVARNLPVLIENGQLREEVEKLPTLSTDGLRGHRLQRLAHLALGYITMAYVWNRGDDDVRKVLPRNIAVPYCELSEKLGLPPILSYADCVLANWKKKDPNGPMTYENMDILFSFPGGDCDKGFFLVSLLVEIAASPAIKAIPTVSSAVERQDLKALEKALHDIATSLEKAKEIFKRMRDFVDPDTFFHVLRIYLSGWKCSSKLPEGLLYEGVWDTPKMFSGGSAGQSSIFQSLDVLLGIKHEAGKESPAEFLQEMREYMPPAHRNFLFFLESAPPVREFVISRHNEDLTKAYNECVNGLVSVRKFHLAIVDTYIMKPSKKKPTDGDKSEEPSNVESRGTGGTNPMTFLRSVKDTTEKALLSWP
Indoleamine 2,3-dioxygenase 1 (Rattus norvegicus, UniProt Q9ERD9), sequence (Q9ERD9 whole entry): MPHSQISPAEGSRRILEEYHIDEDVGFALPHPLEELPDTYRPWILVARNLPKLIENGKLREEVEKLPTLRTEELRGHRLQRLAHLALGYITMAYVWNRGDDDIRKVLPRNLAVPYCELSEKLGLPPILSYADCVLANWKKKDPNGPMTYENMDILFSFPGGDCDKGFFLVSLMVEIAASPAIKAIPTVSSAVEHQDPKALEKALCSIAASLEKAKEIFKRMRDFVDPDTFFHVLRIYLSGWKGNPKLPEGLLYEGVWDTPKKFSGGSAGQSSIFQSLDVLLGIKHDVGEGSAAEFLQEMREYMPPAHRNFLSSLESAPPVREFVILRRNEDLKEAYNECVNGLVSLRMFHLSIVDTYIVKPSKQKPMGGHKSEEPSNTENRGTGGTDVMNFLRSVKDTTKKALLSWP

Question: For `Nc1nonc1/C(=N/O)NC1Cc2cc(F)ccc21` (stereo not given), which IC50 [1] is on record?
Answer: 150 nM

Question: And the IC50 [2]?
Answer: 735 nM

Question: For `Nc1nonc1/C(=N/O)NC1Cc2ccccc2C1`, which IC50 [2] is on record?
Answer: 43800 nM

Question: With `NC(=O)CNc1nonc1/C(=N/O)N[C@H]1Cc2ccc(F)cc21` as the molecule, how does the CLint scaled [3] read?
Answer: 499 mL/min/kg

Question: What about the MRT [4] of the same molecule?
Answer: 1.7 h

Question: What about the clearance [5] of the same molecule?
Answer: 17 mL/min/kg

Question: What about the CLint scaled [6] of the same molecule?
Answer: 523 mL/min/kg

Question: Which CLint scaled [3] does the source give for `O=C(CSc1nonc1/C(=N/O)N[C@H]1Cc2ccc(F)cc21)NCCO` here?
Answer: 2500 mL/min/kg

Question: And the MRT [4]?
Answer: 0.8 h

Question: And the clearance [5]?
Answer: 42 mL/min/kg

Question: What about the logD [7] of the same molecule?
Answer: 2

Question: What about the CLint scaled [6] of the same molecule?
Answer: 108 mL/min/kg

Question: Which results are given for `Nc1nonc1/C(=N/O)N[C@H]1Cc2ccc(F)cc21`?
Answer: CLint scaled [3]: 7380 mL/min/kg; MRT [4]: 0.4 h; clearance [5]: 60 mL/min/kg; logD [7]: 2.7

Question: Which IC50 [2] does the source give for `Nc1nonc1/C(=N/O)NC1CCCc2ccccc21` (stereo not given) here?
Answer: 2750 nM

Question: With `O=C(CNc1nonc1/C(=N/O)N[C@H]1Cc2ccc(F)cc21)NCCO` as the molecule, how does the IC50 (CYP450) read?
Answer: > 50 µM

Question: What about the remaining at 24 h [8] of the same molecule?
Answer: 81.5%

Question: And the CLint scaled [3]?
Answer: 112 mL/min/kg

Question: What about the bioavailability [9] of the same molecule?
Answer: 67%

Question: What about the IC50 [10] of the same molecule?
Answer: 28 nM

Question: And the Activity (EMT6 [11])?
Answer: 15%

Question: What about the Papp [12] of the same molecule?
Answer: 25 ×10⁻⁶ cm/s

Question: And the Activity (EMT6 [13])?
Answer: 79%

Question: What about the EC50 [14] of the same molecule?
Answer: > 30 µM

Question: And the half-life [15]?
Answer: 360 min

Question: And the remaining at 24 h [16]?
Answer: 77.1%

Question: And the MRT [4]?
Answer: 2.9 h

Question: What about the Activity [17] of the same molecule?
Answer: Non-Toxic

Question: What about the clearance [5] of the same molecule?
Answer: 15 mL/min/kg

Question: And the logD [7]?
Answer: 1.9 to 2

Question: And the clearance [18]?
Answer: 6 mL/min/kg

Question: And the remaining at 24 h [19]?
Answer: 97%

Question: And the CL free [20]?
Answer: 88 mL/min/kg

Question: What about the remaining at 24 h [21] of the same molecule?
Answer: 96.2%

Question: What about the CLint scaled [6] of the same molecule?
Answer: 48 mL/min/kg

Question: What about the remaining at 3 h [22] of the same molecule?
Answer: 98.1%

Question: And the remaining at 3 h [23]?
Answer: 88.4%

Question: And the bioavailability [24]?
Answer: 63%

Question: And the CL free [25]?
Answer: 319 mL/min/kg

Question: And the remaining at 3 h [26]?
Answer: 97.4%

Question: What about the IC50 [27] of the same molecule?
Answer: 59 nM

Question: And the IC50 [28]?
Answer: > 10 µM

Question: Which CLint scaled [3] does the source give for `NS(=O)(=O)NCCNc1nonc1/C(=N/O)N[C@H]1Cc2ccc(F)cc21` here?
Answer: 463 mL/min/kg

Question: What about the MRT [4] of the same molecule?
Answer: 2 h

Question: What about the clearance [5] of the same molecule?
Answer: 12 mL/min/kg

Question: And the logD [7]?
Answer: 2.4

Question: And the CLint scaled [6]?
Answer: 462 mL/min/kg

Question: For `NS(=O)(=O)NCCSc1nonc1/C(=N/O)N[C@H]1Cc2ccc(F)cc21`, which CLint scaled [3] is on record?
Answer: 977 mL/min/kg

Question: What about the MRT [4] of the same molecule?
Answer: 2.5 h

Question: What about the clearance [5] of the same molecule?
Answer: 14 mL/min/kg

Question: And the logD [7]?
Answer: 2.45

Question: What about the CLint scaled [6] of the same molecule?
Answer: 616 mL/min/kg

Question: With `Nc1nonc1/C(=N/O)NC1Cc2cc(F)c(F)cc21` (stereo not given) as the molecule, how does the IC50 [1] read?
Answer: 75 nM

Question: What about the IC50 [2] of the same molecule?
Answer: 392 nM

Question: What does the source list for `CC(=O)NCCNc1nonc1/C(=N/O)N[C@H]1Cc2ccc(F)cc21`?
Answer: CLint scaled [3]: 3550 mL/min/kg; MRT [4]: 0.4 h; clearance [5]: 51 mL/min/kg; CLint scaled [6]: 863 mL/min/kg

Question: With `CC(=O)NCCSc1nonc1/C(=N/O)N[C@H]1Cc2ccc(F)cc21` as the molecule, how does the CLint scaled [3] read?
Answer: 1880 mL/min/kg

Question: What about the MRT [4] of the same molecule?
Answer: 1 h

Question: And the clearance [5]?
Answer: 29 mL/min/kg

Question: What about the logD [7] of the same molecule?
Answer: 2.46

Question: What about the CLint scaled [6] of the same molecule?
Answer: 354 mL/min/kg
